According to patent publication US8389514B2, “Cyanoaminoquinolones and tetrazoloaminoquinolones as GSK-3 inhibitors” (Kyorin Pharmaceutical Co., Ltd., priority 2007, dated 2013):

What was measured:
[1] = biological target: T1, recombinant full-length human GSK3β (Homo sapiens, UniProt P49841); assay: GSK3β enzyme cell free luciferase-coupled kinase assay; assay type: biochemical; conditions: 5 μM ATP
T1 construct: recombinant full-length human GSK3β (Upstate); purchased Upstate
Protocol: All coupled-luciferase assays are performed by using a brief incubation with firefly luciferase (Promega) after completion of the kinase assay. KinaseGlo Plus is used for reading kinase reactions with ATP>10 μM, KinaseGlo for ATP<10 μM. The assay volume in a 384-well plate for the kinase reaction is 30 microliters.
10-25 ng of recombinant full-length human GSK3β (Upstate) is incubated in the presence or absence of compound at varying concentrations for 1 hour at 30 degrees Celsius in 20 mM MOPS, pH 7.0, 10 mM magnesium acetate, 0.2 mM EDTA, 2 mM EGTA, 30 mM magnesium chloride, 62.5 μM phospho-glycogen synthase peptide-2, 5 μM ATP, 10 mM β-glycerol phosphate, 1 mM sodium orthovanadate and 1 mM dithiothreitol. Proceed to KinaseGlo luciferase reaction (see below).
Following the completion of the kinase reaction an equal volume of KinaseGlo or KinaseGlo Plus luciferase reagent (Promega) is added and the luminescence read using a luminescence plate reader within 5-10 minutes. Compound activity is expressed as % inhibition relative to maximal inhibition observed at the maximal dose and IC50 values then calculated using curve fitting software (GraphPad Prizm).

E. coli, ATCC8739 = assay: Antibacterial activity (MIC), E. coli; assay type: cell-based; conditions: Escherichia coli
Source text: (§1) As used herein, a minimum inhibitory concentration (MIC) for bacterial growth assay is the lowest level of a compound needed to cause an inhibition to bacterial growth in culture medium. In certain embodiments, the antibacterial activity of compounds herein, measured as MIC.
(§2) In certain embodiments, GSK3 inhibitors provided herein are substantially free of antibacterial activity or having very low antibacterial activity. The antibacterial activity can be measured by methods known in the art by estimating a minimum inhibitory concentration (MIC) for test compounds. A MIC is the lowest level of a compound needed to cause an inhibition to bacterial growth in a culture medium. […] (Clinical and Laboratory Standards Institute. Methods for Dilution Antimicrobial Susceptibility Tests for Bacteria That Grow Aerobically; Approved Standard-Sixth Edition: CLSI document […]. CLSI, Wayne, Pa. (2003))
(§3) Antibacterial activity for E. coli, ATCC8739 and S. aures Smith is expressed as MIC (μM).

S. aureus Smith = assay: Antibacterial activity (MIC), S. aureus Smith; assay type: cell-based; conditions: Staphylococcus aureus
Source text: as §1, §2, §3

T1 sequence (P49841 whole entry): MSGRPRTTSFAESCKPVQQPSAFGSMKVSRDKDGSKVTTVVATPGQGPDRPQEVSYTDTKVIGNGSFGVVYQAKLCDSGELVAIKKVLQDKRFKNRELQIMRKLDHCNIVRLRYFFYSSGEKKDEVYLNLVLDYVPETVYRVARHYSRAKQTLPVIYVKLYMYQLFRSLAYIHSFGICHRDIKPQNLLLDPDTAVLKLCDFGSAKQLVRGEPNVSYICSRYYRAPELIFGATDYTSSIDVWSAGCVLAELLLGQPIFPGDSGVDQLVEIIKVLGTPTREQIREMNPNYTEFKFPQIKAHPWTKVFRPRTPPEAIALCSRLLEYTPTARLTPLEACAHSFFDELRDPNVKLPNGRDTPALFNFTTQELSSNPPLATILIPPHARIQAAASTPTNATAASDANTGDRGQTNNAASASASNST

IC50 [1] | Compound | MIC (E. coli, ATCC8739) | MIC (S. aureus Smith)
10 to 100 nM | CCN(CCCNc1c(F)c(N)c2c(=O)c(-c3nnn[nH]3)cn3c2c1OC[C@@H]3C)c1ccccc1 |  | 
< 10 nM | C[C@H]1COc2c(NCCCc3ccccn3)c(F)c(N)c3c(=O)c(-c4nnn[nH]4)cn1c23 |  | 

Compound | IC50 [1] | MIC (E. coli, ATCC8739) | MIC (S. aureus Smith)
C[C@H]1COc2c(NCCCn3ccnc3)c(F)c(N)c3c(=O)c(-c4nnn[nH]4)cn1c23 | 10 to 100 nM | > 257 µM | > 257 µM
